{
  "source": "paper PMC6065317",
  "about": "“Rice Defensin OsAFP1 is a New Drug Candidate against Human Pathogenic Fungi” (Scientific Reports, 2018)",
  "key": {"C. albicans CAI4": {"tested_on": "C. albicans CAI4", "assay": "Thermal stability (MIC of heat-treated peptide)", "type": "cell-based, Candida albicans", "settings": "peptide heated at 100 °C for 10 min, 0–8 μM, OD650, n = 3", "method": "Antifungal assays to determine the MIC of OsAFP1 were performed as follows. Fungal cells (1 × 10^5 cells) were suspended in 100 μl of the appropriate medium containing 0–32 μM OsAFP1 in 96-well Costar cell culture plates. After incubation, OD650 was measured using a plate reader. […] In some measurements, because of aggregation of medium components, it was difficult to determine MIC values. In those cases, the cultures were plated on agar plates (0.5 × PDB), and the peptide concentration at which viable cell numbers were 1% or less than that in the control culture was considered the MIC. GraphPad Prism version 6.00 for Macintosh (GraphPad Software, La Jolla, CA, USA) was used to calculate IC50 values. Experiments were independently repeated at least three times. Detailed growth conditions for each fungus are provided in the “Microorganisms and culture conditions” section above.\nThermal stability of OsAFP1 was evaluated by comparing the MIC of heat-treated (10 min at 100 °C) peptide to the MIC of untreated peptide."}, "[1]": {"tested_on": "C. albicans CAI4 cytoplasmic membrane", "assay": "PI uptake assay (flow cytometry)", "type": "cell-based, Candida albicans", "settings": "4 × IC50 (6 μM melittin, 8 μM OsAFP1, 20 or 24 μM peptide 1, 40 μM peptide 7), 30 °C, 3 h, PI 5 μg/ml, PBS control 0.1 %", "method": "C. albicans CAI4 cells (2 × 10^5 cells/ml) were treated with OsAFP1, peptide 1, peptide 7, or melittin at 4 × IC50 concentrations (8 μM for OsAFP1, 24 μM for peptide 1, 40 μM for peptide 7, and 6 μM for melittin[52],[53]) and incubated at 30 °C for 3 h. After the addition of PI (5 μg/ml) and incubation at room temperature in the dark for 30 min, the cells were analysed using a flow cytometer equipped with a 488 nm air-cooled argon laser. At least 10,000 events per sample were recorded. As a negative control, PBS was used instead of antifungal agents, and the mixtures were treated in the same way."}},
  "note": "Where no end group is shown, it is not given here.",
  "data": [
    {"substance": "OsAFP1: rice defensin (Os02g41904, UniProtKB Q6K209); recombinant mature peptide produced in E. coli, four disulphide bonds (RHCLSQSHRFKGMCVSSNNCANVCRTESFPDGECKSHGLERKCFCKKVC; disulfide (positions not given here); UniProt Q6K209 32-80, looked up)", "values": [
      {"measurement": "MIC of heat-treated peptide", "setting": "C. albicans CAI4", "result": 8, "unit": "µM"},
      {"measurement": "cells stained with PI", "setting": "[1]", "result": 3.6, "unit": "%"}
    ]}
  ]
}
